pIC50: −log10 of the molar value.

Chain of H1047R PIK3CA enzyme (P42336 whole entry H1047R): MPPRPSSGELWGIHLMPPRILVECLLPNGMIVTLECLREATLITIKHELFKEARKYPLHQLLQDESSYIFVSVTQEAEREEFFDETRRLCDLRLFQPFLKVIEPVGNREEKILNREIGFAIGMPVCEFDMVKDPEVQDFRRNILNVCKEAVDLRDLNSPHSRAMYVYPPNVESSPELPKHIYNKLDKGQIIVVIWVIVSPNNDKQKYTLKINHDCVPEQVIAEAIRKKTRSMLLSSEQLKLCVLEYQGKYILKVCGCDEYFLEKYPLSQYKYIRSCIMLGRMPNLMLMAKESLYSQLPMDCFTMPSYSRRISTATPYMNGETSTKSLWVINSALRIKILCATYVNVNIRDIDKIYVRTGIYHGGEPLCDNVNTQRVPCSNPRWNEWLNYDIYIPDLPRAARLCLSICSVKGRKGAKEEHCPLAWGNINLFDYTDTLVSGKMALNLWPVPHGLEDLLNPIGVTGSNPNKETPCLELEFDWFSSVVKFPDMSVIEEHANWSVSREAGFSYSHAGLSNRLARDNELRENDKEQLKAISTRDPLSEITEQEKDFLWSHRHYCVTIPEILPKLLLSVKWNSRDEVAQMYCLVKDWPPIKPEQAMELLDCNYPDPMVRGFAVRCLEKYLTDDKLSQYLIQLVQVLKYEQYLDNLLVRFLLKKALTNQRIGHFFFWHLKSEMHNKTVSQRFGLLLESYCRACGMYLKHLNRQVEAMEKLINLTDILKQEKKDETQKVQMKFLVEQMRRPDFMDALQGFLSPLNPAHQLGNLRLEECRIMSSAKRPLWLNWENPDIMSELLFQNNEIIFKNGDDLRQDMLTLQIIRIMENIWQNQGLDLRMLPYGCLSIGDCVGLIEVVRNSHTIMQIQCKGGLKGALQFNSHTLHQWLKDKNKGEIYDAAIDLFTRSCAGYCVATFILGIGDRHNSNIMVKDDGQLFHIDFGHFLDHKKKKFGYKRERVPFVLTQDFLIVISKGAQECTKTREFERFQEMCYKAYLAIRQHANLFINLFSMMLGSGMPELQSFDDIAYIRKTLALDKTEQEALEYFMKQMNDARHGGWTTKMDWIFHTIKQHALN
Chain of H1047R PIK3CA enzyme (P27986 whole entry partner): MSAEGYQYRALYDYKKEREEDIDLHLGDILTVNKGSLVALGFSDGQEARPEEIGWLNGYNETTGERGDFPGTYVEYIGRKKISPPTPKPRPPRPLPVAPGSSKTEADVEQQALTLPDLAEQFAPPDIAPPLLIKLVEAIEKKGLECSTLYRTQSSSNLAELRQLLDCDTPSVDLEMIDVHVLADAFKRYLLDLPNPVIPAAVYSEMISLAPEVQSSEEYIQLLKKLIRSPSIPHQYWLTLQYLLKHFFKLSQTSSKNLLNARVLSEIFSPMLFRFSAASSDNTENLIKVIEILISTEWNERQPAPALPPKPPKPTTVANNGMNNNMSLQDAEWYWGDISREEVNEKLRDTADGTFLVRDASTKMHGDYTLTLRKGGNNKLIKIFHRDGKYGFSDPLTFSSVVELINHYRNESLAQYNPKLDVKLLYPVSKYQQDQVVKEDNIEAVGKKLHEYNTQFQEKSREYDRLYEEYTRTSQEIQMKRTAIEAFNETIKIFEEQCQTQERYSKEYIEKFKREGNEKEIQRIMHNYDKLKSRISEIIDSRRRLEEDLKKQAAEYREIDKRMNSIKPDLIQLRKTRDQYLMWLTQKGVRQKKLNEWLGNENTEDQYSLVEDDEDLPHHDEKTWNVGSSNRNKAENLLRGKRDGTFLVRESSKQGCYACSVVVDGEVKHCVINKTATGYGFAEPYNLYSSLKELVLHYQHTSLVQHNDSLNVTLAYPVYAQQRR

This assay has as its target H1047R PIK3CA enzyme (Homo sapiens, UniProt P42336, H1047R). Put plainly: ADP-Glo Biochemical PIK3CA Kinase Assay. In general terms: ADP-Glo first removes unused ATP, then detects ADP through luciferase.
In general, pIC50 refers to −log10 of the IC50, conventionally taken in molar units. Read a low pIC50 as a large IC50. In the case of `O=C(Nc1cc(C(O)c2ccccn2)cc2c1C(c1cc(F)ccc1Cl)NC2=O)c1cc(F)cc(C(F)(F)F)c1` (stereo not shown) [Compound I-1278], the pIC50 was at least 7.00.

In the case of `O=C(Nc1cc(CC2COC2)cc2c1C(c1cc(F)ccc1Cl)NC2=O)c1cc(F)cc(C(F)(F)F)c1` (stereo not shown) [Compound I-1279], the pIC50 was at least 7.00.

Regarding `O=C(Nc1cc(C2CN(C3COC3)C2)cc2c1C(c1cc(F)ccc1Cl)NC2=O)c1cc(F)cc(C(F)(F)F)c1` (stereo not shown) [Compound I-1280], the pIC50 is at least 7.00.

The compound `O=C(Nc1cc(C2(O)COC2)cc2c1C(c1cc(F)ccc1Cl)NC2=O)c1cc(F)cc(C(F)(F)F)c1` (stereo not shown) [Compound I-1281] had a pIC50 of at least 7.00.

With `O=C(Nc1cc(Br)cc2c1C(c1cc(F)ccc1Cl)NC2=O)c1cc(O)cc(Cl)c1` (stereo not shown) [Compound I-1282], the pIC50 is 6.30 to 7.00.

Consider `O=C(Nc1cc(Br)cc2c1C(c1cc(F)ccc1Cl)NC2=O)c1cc(O)cc(F)c1` (stereo not shown) [Compound I-1283], for which the negative logarithm of the IC50 (pIC50) is 5.00 to 6.00.

Regarding `O=C(Nc1cc(Br)cc2c1C(c1cc(F)ccc1Cl)NC2=O)c1ccc[n+]([O-])c1` (stereo not shown) [Compound I-1284], the pIC50 is 4.00 to 5.00.

On to `O=C(Nc1cc(Br)cc2c1C(c1cc(F)ccc1Cl)NC2=O)c1cc(F)cc(COC(F)F)c1` (stereo not shown) [Compound I-1285], for which the pIC50 was 4.00 to 5.00.

In the case of `O=C(Nc1cc(Br)cc2c1C(c1cc(F)ccc1Cl)NC2=O)c1ccc(OC(F)F)c(F)c1` (stereo not shown) [Compound I-1286], the pIC50 was 5.00 to 6.00.

Take `O=C1NC(c2cc(F)ccc2Cl)c2c(NS(=O)(=O)N3CCc4ccccc43)cc(Br)cc21` (stereo not shown) [Compound I-1287]: the pIC50 is 4.00 to 5.00.

`CC(F)c1cc(F)cc(C(=O)Nc2cc(Br)cc3c2C(c2cc(F)ccc2Cl)NC3=O)c1` (stereo not shown) [Compound I-1288] gave a pIC50 of 6.30 to 7.00.

The compound `NCC(O)c1cc(NC(=O)c2cc(F)cc(C(F)(F)F)c2)c2c(c1)C(=O)NC2c1cc(F)ccc1Cl` (stereo not shown) [Compound I-1290] showed a pIC50 of 6.30 to 7.00.

Turning to `O=C(Nc1cc(N2CC3CNCC3C2=O)cc2c1C(c1cc(F)ccc1Cl)NC2=O)c1cc(F)cc(C(F)(F)F)c1` (stereo not shown) [Compound I-1291], the pIC50 is at least 7.00.

For the compound `CC(c1cc(NC(=O)c2cc(F)cc(C(F)(F)F)c2)c2c(c1)C(=O)NC2c1cc(F)ccc1Cl)S(C)(=O)=O` (stereo not shown) [Compound I-1292], the pIC50 is at least 7.00.

As to `Cn1nccc1Cc1cc(NC(=O)c2cc(F)cc(C(F)(F)F)c2)c2c(c1)C(=O)NC2c1cc(F)ccc1Cl` (stereo not shown) [Compound I-1293], the pIC50 is at least 7.00.

For the compound `O=C(Nc1cc(Br)cc2c1C(c1cc(F)ccc1Cl)NC2=O)NC1(C(F)(F)F)CC1` (stereo not shown) [Compound I-1294], the pIC50 was 5.00 to 6.00.

In turn, `CS(=O)(=O)c1cc(NC(=O)c2cc(F)cc(C(F)(F)F)c2)c2c(c1)C(=O)NC2(c1cc(F)ccc1Cl)S(=O)(=O)O` (stereo not shown) [Compound I-1296] had a pIC50 of 5.00 to 6.00.

`CC(C)(C)OC(=O)NCCSc1cc(NC(=O)c2cc(F)cc(C(F)(F)F)c2)c2c(c1)C(=O)NC2c1cc(F)ccc1Cl` (stereo not shown) [Compound I-1297] gave a pIC50 of 6.30 to 7.00.

In turn, `NCCOc1cc(NC(=O)c2cc(F)cc(C(F)(F)F)c2)c2c(c1)C(=O)NC2c1cc(F)ccc1Cl` (stereo not shown) [Compound I-1298] gave a pIC50 of 6.30 to 7.00.

In turn, `O=C(Nc1cc(N2CC3(CNC3)C2)cc2c1C(c1cc(F)ccc1Cl)NC2=O)c1cc(F)cc(C(F)(F)F)c1` (stereo not shown) [Compound I-1299] had a pIC50 of 6.30 to 7.00.

Compound `O=C(Nc1cc(-c2cn3ccncc3n2)cc2c1C(c1cc(F)ccc1Cl)NC2=O)c1cc(F)cc(C(F)(F)F)c1` (stereo not shown) [Compound I-1300] showed a pIC50 of at least 7.00.

In turn, `CC(=O)N1CC2(C1)CN(c1cc(NC(=O)c3cc(F)cc(C(F)(F)F)c3)c3c(c1)C(=O)NC3c1cc(F)ccc1Cl)C2` (stereo not shown) [Compound I-1301] showed a pIC50 of 6.30 to 7.00.

As to `O=C(Nc1cc(CC2CCO2)cc2c1C(c1cc(F)ccc1Cl)NC2=O)c1cc(F)cc(C(F)(F)F)c1` (stereo not shown) [Compound I-1302], the pIC50 is at least 7.00.

`N#CCn1nccc1-c1cc(NC(=O)c2cc(F)cc(C(F)(F)F)c2)c2c(c1)C(=O)NC2c1cc(F)ccc1Cl` (stereo not shown) [Compound I-1303] showed a pIC50 of at least 7.00.

In turn, `O=C(Nc1cc(-c2cn3ncccc3n2)cc2c1C(c1cc(F)ccc1Cl)NC2=O)c1cc(F)cc(C(F)(F)F)c1` (stereo not shown) [Compound I-1306] gave a pIC50 of at least 7.00.

The compound `O=C1COC(c2cc(NC(=O)c3cc(F)cc(C(F)(F)F)c3)c3c(c2)C(=O)NC3c2cc(F)ccc2Cl)CN1` (stereo not shown) [Compound I-1308] showed a pIC50 of at least 7.00.

The compound `O=C(Nc1cc(N2CC3CNC(=O)C3C2)cc2c1C(c1cc(F)ccc1Cl)NC2=O)c1cc(F)cc(C(F)(F)F)c1` (stereo not shown) [Compound I-1309] showed a pIC50 of at least 7.00.

The compound `O=C(Nc1cc(N2CC3(CCO3)C2)cc2c1C(c1cc(F)ccc1Cl)NC2=O)c1cc(F)cc(C(F)(F)F)c1` (stereo not shown) [Compound I-1310] showed a pIC50 of 6.30 to 7.00.

`N#Cc1nc(-c2cc(NC(=O)c3cc(F)cc(C(F)(F)F)c3)c3c(c2)C(=O)NC3c2cc(F)ccc2Cl)cs1` (stereo not shown) [Compound I-1311] showed a pIC50 of at least 7.00.

`CS(=O)(Cc1cc(NC(=O)c2cc(F)cc(C(F)(F)F)c2)c2c(c1)C(=O)NC2c1cc(F)ccc1Cl)=NC#N` (stereo not shown) [Compound I-1312] gave a pIC50 of at least 7.00.

In the case of `O=C(Nc1cc(Br)cc2c1C(c1cc(F)ccc1Cl)NC2=O)c1ccc(OC(F)(F)F)c(F)c1` (stereo not shown) [Compound I-1313], the pIC50 was 5.00 to 6.00.

The compound `O=C(Nc1cc(Br)cc2c1C(c1cc(F)ccc1Cl)NC2=O)c1cccc(SC(F)(F)F)c1` (stereo not shown) [Compound I-1314] had a pIC50 of 5.00 to 6.00.

As to `O=C1NC(c2cc(F)ccc2Cl)c2c(Nc3n[nH]c4ccccc34)cc(Br)cc21` (stereo not shown) [Compound I-1315], the pIC50 is 4.00 to 5.00.

`COCc1cc(F)cc(C(=O)Nc2cc(Br)cc3c2C(c2cc(F)ccc2Cl)NC3=O)c1` (stereo not shown) [Compound I-1316] showed a pIC50 of 5.00 to 6.00.

`O=C1NC(c2cc(F)ccc2Cl)c2c1cccc2-c1cc2c(Cl)cc(F)cc2[nH]1` (stereo not shown) [Compound I-1317] gave a pIC50 of 6.30 to 7.00.

For the compound `O=C1NC(c2cc(F)ccc2Cl)c2c(NC(=O)n3ccc4ccccc43)cc(Br)cc21` (stereo not shown) [Compound I-1318], the pIC50 was at least 7.00.

As to `O=C1NC(c2cc(F)ccc2Cl)c2c(NC(=O)c3cc(F)cc4oc(=O)[nH]c34)cc(Br)cc21` (stereo not shown) [Compound I-1319], the pIC50 was 5.00 to 6.00.

Take `O=C1NC(c2cc(F)ccc2Cl)c2c(NC(=O)C3CCC(C(F)(F)F)CC3)cc(Br)cc21` (stereo not shown) [Compound I-1324]: the pIC50 was 5.00 to 6.00.

As for `O=C(Nc1cc(-c2cn3ccnc3cn2)cc2c1[C@@H](c1cc(F)ccc1Cl)NC2=O)c1cc(F)cc(C(F)(F)F)c1` [Compound I-1329], the negative-log IC50 (pIC50) was 5.00 to 6.00.

The compound `O=C(Nc1cc(-c2cn3ccnc3cn2)cc2c1[C@H](c1cc(F)ccc1Cl)NC2=O)c1cc(F)cc(C(F)(F)F)c1` [Compound I-1330] showed a pIC50 of at least 7.00.

Regarding `O=C(Nc1cc(-c2ccc3nccn3n2)cc2c1[C@@H](c1cc(F)ccc1Cl)NC2=O)c1cc(F)cc(C(F)(F)F)c1` [Compound I-1331], the pIC50 was 5.00 to 6.00.

In turn, `O=C(Nc1cc(-c2ccc3nccn3n2)cc2c1[C@H](c1cc(F)ccc1Cl)NC2=O)c1cc(F)cc(C(F)(F)F)c1` [Compound I-1332] showed a pIC50 of at least 7.00.

As to `N#C[C@H]1C[C@@H](Oc2cc(NC(=O)c3cc(F)cc(C(F)(F)F)c3)c3c(c2)C(=O)N[C@@H]3c2cc(F)ccc2Cl)C1` [Compound I-1333], the pIC50 was 5.00 to 6.00.

On to `N#C[C@H]1C[C@@H](Oc2cc(NC(=O)c3cc(F)cc(C(F)(F)F)c3)c3c(c2)C(=O)N[C@H]3c2cc(F)ccc2Cl)C1` [Compound I-1334], for which the pIC50 was at least 7.00.

`O=C(Nc1cc(-c2cn3ncnc3cn2)cc2c1C(c1cc(F)ccc1Cl)NC2=O)c1cc(F)cc(C(F)(F)F)c1` (stereo not shown) [Compound I-1335]: the pIC50 is at least 7.00.

For `CS(=O)(=O)Cn1cc(-c2cc(NC(=O)c3cc(F)cc(C(F)(F)F)c3)c3c(c2)C(=O)NC3c2cc(F)ccc2Cl)cn1` (stereo not shown) [Compound I-1336], the pIC50 is at least 7.00.

In turn, `O=C(Nc1cc(C(O)C2(O)COC2)cc2c1C(c1cc(F)ccc1Cl)NC2=O)c1cc(F)cc(C(F)(F)F)c1` (stereo not shown) [Compound I-1337] gave a pIC50 of 6.30 to 7.00.

Consider `O=C(Nc1cc(OCC2(O)COC2)cc2c1C(c1cc(F)ccc1Cl)NC2=O)c1cc(F)cc(C(F)(F)F)c1` (stereo not shown) [Compound I-1338], for which the pIC50 is 6.30 to 7.00.

In turn, `O=C(Nc1cc(CC2(CO)COC2)cc2c1C(c1cc(F)ccc1Cl)NC2=O)c1cc(F)cc(C(F)(F)F)c1` (stereo not shown) [Compound I-1339] gave a pIC50 of at least 7.00.

On to `O=C(Nc1cc(-c2ccnn2CCO)cc2c1C(c1cc(F)ccc1Cl)NC2=O)c1cc(F)cc(C(F)(F)F)c1` (stereo not shown) [Compound I-1340], for which the pIC50 was at least 7.00.

As to `O=C(Nc1cc(OCC(O)CO)cc2c1C(c1cc(F)ccc1Cl)NC2=O)c1cc(F)cc(C(F)(F)F)c1` (stereo not shown) [Compound I-1341], the negative-log IC50 (pIC50) is at least 7.00.

The compound `O=C(Nc1cc(-c2ccc3ncnn3c2)cc2c1C(c1cc(F)ccc1Cl)N(CO)C2=O)c1cc(F)cc(C(F)(F)F)c1` (stereo not shown) [Compound I-1342] gave a pIC50 of 6.30 to 7.00.

Consider `CC(C)[C@H](N)C(=O)N1C(=O)c2cc(-c3ccc4ncnn4c3)cc(NC(=O)c3cc(F)cc(C(F)(F)F)c3)c2C1c1cc(F)ccc1Cl` (stereo partly shown) [Compound I-1343], for which the pIC50 is at least 7.00.

`CS(=O)(=O)N1CC(Oc2cc(NC(=O)c3cc(F)cc(C(F)(F)F)c3)c3c(c2)C(=O)NC3c2cc(F)ccc2Cl)C1` (stereo not shown) [Compound I-1346] showed a pIC50 of at least 7.00.

In the case of `Cn1nc(Nc2cc(Br)cc3c2C(c2cc(F)ccc2Cl)NC3=O)c2ccccc21` (stereo not shown) [Compound I-1349], the pIC50 was 4.00 to 5.00.

In turn, `O=C(Nc1cc(Br)cc2c1C(c1cc(F)ccc1Cl)NC2=O)c1cc(F)cc(CC2CCC2)c1` (stereo not shown) [Compound I-1350] showed a pIC50 of 5.00 to 6.00.

For the compound `O=C(Nc1cc(Br)cc2c1C(c1cc(F)ccc1Cl)NC2=O)c1cc(F)cc(C2CCC2)c1` (stereo not shown) [Compound I-1351], the pIC50 was 5.00 to 6.00.

Take `O=C1NC(c2cc(F)ccc2Cl)c2c(NS(=O)(=O)c3cc(F)cc(C(F)(F)F)c3)cc(Br)cc21` (stereo not shown) [Compound I-1352]: the pIC50 is 4.00 to 5.00.

Consider `O=C(Nc1cc(F)cc(C(F)(F)F)c1)c1cccc2c1C(c1cc(F)ccc1Cl)NC2=O` (stereo not shown) [Compound I-1353], for which the pIC50 is 5.00 to 6.00.

Turning to `O=C(Nc1cc(N2CCn3cnnc3C2)cc2c1C(c1cc(F)ccc1Cl)NC2=O)c1cc(F)cc(C(F)(F)F)c1` (stereo not shown) [Compound I-1354], the pIC50 is at least 7.00.

`O=C(Nc1cc(-c2cn3cccnc3n2)cc2c1C(c1cc(F)ccc1Cl)NC2=O)c1cc(F)cc(C(F)(F)F)c1` (stereo not shown) [Compound I-1355] showed a pIC50 of at least 7.00.

These data come from patent US12581252B2, “Substituted pyrrolo[3,4-b]pyridines as PI3K-α inhibitors” (Relay Therapeutics, Inc., priority 2020, dated 2026).
